This is an account of results in patent publication US20250034139A1, “AMINE COMPOUNDS HAVING ANTI-INFLAMMATORY, ANTIFUNGAL, ANTIPARASITIC, AND ANTICANCER ACTIVITY” (PHARMA CINQ, LLC, priority 2013, published 2025).

Converted amounts (≈) assume the structure as drawn.

One assay relates to S. cerevisiae. The assay can be described thus: Example I: Saccharomyces cerevisiae growth inhibition (OD 600 nm). The format is cell-based. The settings on record: Saccharomyces cerevisiae, read-out: IC50, uM (50% inhibition of fungal growth); 18 hour incubation at 30° C., OD 600 nm, XLfit.
On to `Cc1cccc(OCCCCCCCCNc2ccnc3ccccc23)c1` [BE, N-[8-(m-Tolyloxy)octyl]quinolin-4-amine], for which the IC50 was 19.2 µM.

For `Cc1ccccc1OCCCCCCCCNc1ccnc2ccccc12` [BG, N-[8-(o-Tolyloxy)octyl]quinolin-4-amine], the IC50 came to 9.88 µM.

For the compound `Fc1cccc(OCCCCCCCCNc2ccnc3ccccc23)c1` [BI, N-[8-(3-Fluorophenoxy)octyl]quinolin-4-amine], the IC50 amounted to 28.6 µM.

In the case of `Fc1ccc(OCCCCCCCCNc2ccnc3ccccc23)cc1` [BJ, N-[8-(4-Fluorophenoxy)octyl]quinolin-4-amine], the IC50 worked out at 21.4 µM.

Staying with this assay, now noted: Saccharomyces cerevisiae; 18 hour incubation at 30° C., OD 600 nm, XLfit; read-out: MIC, uM (99% of inhibition of fungal growth).
Take `Cc1cccc(OCCCCCCCCNc2ccnc3ccccc23)c1` [BE, N-[8-(m-Tolyloxy)octyl]quinolin-4-amine]: the MIC came out at 24.1 µM (≈ 8.75 µg/mL).

Turning to `Cc1ccccc1OCCCCCCCCNc1ccnc2ccccc12` [BG, N-[8-(o-Tolyloxy)octyl]quinolin-4-amine], the MIC was 11.8 µM (≈ 4.29 µg/mL).

Consider `Fc1cccc(OCCCCCCCCNc2ccnc3ccccc23)c1` [BI, N-[8-(3-Fluorophenoxy)octyl]quinolin-4-amine], for which the MIC is 47.1 µM (≈ 17.3 µg/mL).

Regarding `Fc1ccc(OCCCCCCCCNc2ccnc3ccccc23)cc1` [BJ, N-[8-(4-Fluorophenoxy)octyl]quinolin-4-amine], the MIC stood at 37.8 µM (≈ 13.9 µg/mL).

The next assay concerns PC-3 prostate cancer cells. The assay can be described thus: Example T: sensitisation of PC-3 cells to doxorubicin, oxaliplatin, paclitaxel or vincristine, Wst1. It counts as cell-based, human. The settings on record: Homo sapiens; PC-3 cells; compound 0.4 μM alone; 72 hours; Wst1; vehicle = 100; read-out: No Chemo: percent cell survival.
On to `Cc1cccc(OCCCCCCCCNc2ccnc3ccccc23)c1` [BE, N-[8-(m-Tolyloxy)octyl]quinolin-4-amine], for which the viability at 0.4 µM was 99.1%.

On to `Cc1ccccc1OCCCCCCCCNc1ccnc2ccccc12` [BG, N-[8-(o-Tolyloxy)octyl]quinolin-4-amine], for which the viability at 0.4 µM was 99.1%.

Regarding `Fc1cccc(OCCCCCCCCNc2ccnc3ccccc23)c1` [BI, N-[8-(3-Fluorophenoxy)octyl]quinolin-4-amine], the viability at 0.4 µM was determined as 111%.

Regarding `Fc1ccc(OCCCCCCCCNc2ccnc3ccccc23)cc1` [BJ, N-[8-(4-Fluorophenoxy)octyl]quinolin-4-amine], the viability at 0.4 µM is 23.9%.

The assay is the same for the next values; noted with them: PC-3 cells; compound 0.4 μM + doxorubicin 3.5 μM; 72 hours; chemotherapy agent alone normalized to 100%.
Take `Cc1cccc(OCCCCCCCCNc2ccnc3ccccc23)c1` [BE, N-[8-(m-Tolyloxy)octyl]quinolin-4-amine]: the “Doxorubicin 3.5 μM: percent cell survival” value amounted to 44.1%.

For the compound `Cc1ccccc1OCCCCCCCCNc1ccnc2ccccc12` [BG, N-[8-(o-Tolyloxy)octyl]quinolin-4-amine], the “Doxorubicin 3.5 μM: percent cell survival” value is given as 40.1%.

As for `Fc1cccc(OCCCCCCCCNc2ccnc3ccccc23)c1` [BI, N-[8-(3-Fluorophenoxy)octyl]quinolin-4-amine], the “Doxorubicin 3.5 μM: percent cell survival” value was 76.6%.

For the compound `Fc1ccc(OCCCCCCCCNc2ccnc3ccccc23)cc1` [BJ, N-[8-(4-Fluorophenoxy)octyl]quinolin-4-amine], the “Doxorubicin 3.5 μM: percent cell survival” value worked out at 56.8%.

Staying with this assay, now noted: PC-3 cells; compound 0.4 μM + oxaliplatin 100 μM; 72 hours; chemotherapy agent alone normalized to 100%.
Consider `Cc1cccc(OCCCCCCCCNc2ccnc3ccccc23)c1` [BE, N-[8-(m-Tolyloxy)octyl]quinolin-4-amine], for which the “Oxaliplatin 100 μM: percent cell survival” value turned out to be 41.2%.

With `Cc1ccccc1OCCCCCCCCNc1ccnc2ccccc12` [BG, N-[8-(o-Tolyloxy)octyl]quinolin-4-amine], the “Oxaliplatin 100 μM: percent cell survival” value stood at 36.2%.

Take `Fc1cccc(OCCCCCCCCNc2ccnc3ccccc23)c1` [BI, N-[8-(3-Fluorophenoxy)octyl]quinolin-4-amine]: the “Oxaliplatin 100 μM: percent cell survival” value was found to be 84.3%.

Consider `Fc1ccc(OCCCCCCCCNc2ccnc3ccccc23)cc1` [BJ, N-[8-(4-Fluorophenoxy)octyl]quinolin-4-amine], for which the “Oxaliplatin 100 μM: percent cell survival” value came to 64.1%.

The assay is the same for the next values; noted with them: PC-3 cells; compound 0.4 μM + paclitaxel 50 μM; 72 hours; chemotherapy agent alone normalized to 100%.
On to `Cc1cccc(OCCCCCCCCNc2ccnc3ccccc23)c1` [BE, N-[8-(m-Tolyloxy)octyl]quinolin-4-amine], for which the “Paclitaxel 50 μM: percent cell survival” value came to 64%.

With `Cc1ccccc1OCCCCCCCCNc1ccnc2ccccc12` [BG, N-[8-(o-Tolyloxy)octyl]quinolin-4-amine], the “Paclitaxel 50 μM: percent cell survival” value stood at 59.2%.

On to `Fc1cccc(OCCCCCCCCNc2ccnc3ccccc23)c1` [BI, N-[8-(3-Fluorophenoxy)octyl]quinolin-4-amine], for which the “Paclitaxel 50 μM: percent cell survival” value amounted to 71.7%.

For the compound `Fc1ccc(OCCCCCCCCNc2ccnc3ccccc23)cc1` [BJ, N-[8-(4-Fluorophenoxy)octyl]quinolin-4-amine], the “Paclitaxel 50 μM: percent cell survival” value is on record as 50.2%.

Still in this assay, the particulars now being: PC-3 cells; compound 0.4 μM + vincristine 100 nM; 72 hours; chemotherapy agent alone normalized to 100%.
For `Cc1cccc(OCCCCCCCCNc2ccnc3ccccc23)c1` [BE, N-[8-(m-Tolyloxy)octyl]quinolin-4-amine], the “Vincristine 100 nM: percent cell survival” value stood at 74.9%.

For the compound `Cc1ccccc1OCCCCCCCCNc1ccnc2ccccc12` [BG, N-[8-(o-Tolyloxy)octyl]quinolin-4-amine], the “Vincristine 100 nM: percent cell survival” value is listed as 71.1%.

As to `Fc1cccc(OCCCCCCCCNc2ccnc3ccccc23)c1` [BI, N-[8-(3-Fluorophenoxy)octyl]quinolin-4-amine], the “Vincristine 100 nM: percent cell survival” value was found to be 81.7%.

For the compound `Fc1ccc(OCCCCCCCCNc2ccnc3ccccc23)cc1` [BJ, N-[8-(4-Fluorophenoxy)octyl]quinolin-4-amine], the “Vincristine 100 nM: percent cell survival” value was 50.8%.

For the next assay, the system named is Cryptococcus neoformans (serotype D). The assay can be described thus: Example K: Cryptococcus neoformans (serotype D) growth inhibition. The settings on record: Cryptococcus deneoformans, read-out: IC50 (concentration for 50% of inhibition); OD of 48 hour reading, 37° C., tested 4 to 60 μM, XLfit. The format is cell-based.
For the compound `Cc1cccc(OCCCCCCCCNc2ccnc3ccccc23)c1` [BE, N-[8-(m-Tolyloxy)octyl]quinolin-4-amine], the IC50 worked out at 3.45 µM.

For the compound `Cc1ccccc1OCCCCCCCCNc1ccnc2ccccc12` [BG, N-[8-(o-Tolyloxy)octyl]quinolin-4-amine], the IC50 amounted to 2.13 µM.

With `Fc1cccc(OCCCCCCCCNc2ccnc3ccccc23)c1` [BI, N-[8-(3-Fluorophenoxy)octyl]quinolin-4-amine], the IC50 was found to be 2.23 µM.

Regarding `Fc1ccc(OCCCCCCCCNc2ccnc3ccccc23)cc1` [BJ, N-[8-(4-Fluorophenoxy)octyl]quinolin-4-amine], the IC50 was 1.86 µM.

The same assay, now with this note: Cryptococcus deneoformans; OD of 48 hour reading, 37° C., tested 4 to 60 μM, XLfit; read-out: MIC (concentration for maximum-99% of inhibition).
For the compound `Cc1cccc(OCCCCCCCCNc2ccnc3ccccc23)c1` [BE, N-[8-(m-Tolyloxy)octyl]quinolin-4-amine], the MIC stood at 13.2 µM (≈ 4.77 µg/mL).

Regarding `Cc1ccccc1OCCCCCCCCNc1ccnc2ccccc12` [BG, N-[8-(o-Tolyloxy)octyl]quinolin-4-amine], the MIC came out at 12.5 µM (≈ 4.55 µg/mL).

On to `Fc1cccc(OCCCCCCCCNc2ccnc3ccccc23)c1` [BI, N-[8-(3-Fluorophenoxy)octyl]quinolin-4-amine], for which the MIC was 19.6 µM (≈ 7.17 µg/mL).

For `Fc1ccc(OCCCCCCCCNc2ccnc3ccccc23)cc1` [BJ, N-[8-(4-Fluorophenoxy)octyl]quinolin-4-amine], the MIC amounted to 18.5 µM (≈ 6.79 µg/mL).

Another assay has as its system Candida albicans strain 3153. The assay can be described thus: Example H: Candida albicans growth inhibition (OD 600 nm). The format is cell-based. Particulars: Candida albicans, 3153, 24 hrs at 30° C., YPD, XLfit, read-out: MIC (uM) (99% of inhibition of fungal growth). In outline:
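Growth inhibition computed as % versus DMSO control from OD600 after ~24 h at 30° C. Inoculum: washed overnight YPD culture of strain 3153 at 3.5×10^4 CFU/ml in YPD; final compound concentrations 0, 5, 10, 16, 22, 30, 40 μM, duplicate wells.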
Regarding `Cc1cccc(OCCCCCCCCNc2ccnc3ccccc23)c1` [BE, N-[8-(m-Tolyloxy)octyl]quinolin-4-amine], the MIC was determined as 29.7 µM (≈ 10.8 µg/mL).

`Cc1ccccc1OCCCCCCCCNc1ccnc2ccccc12` [BG, N-[8-(o-Tolyloxy)octyl]quinolin-4-amine]: the MIC was 20.9 µM (≈ 7.56 µg/mL).

For `Fc1cccc(OCCCCCCCCNc2ccnc3ccccc23)c1` [BI, N-[8-(3-Fluorophenoxy)octyl]quinolin-4-amine], the MIC was determined as 27.8 µM (≈ 10.2 µg/mL).

Consider `Fc1ccc(OCCCCCCCCNc2ccnc3ccccc23)cc1` [BJ, N-[8-(4-Fluorophenoxy)octyl]quinolin-4-amine], for which the MIC amounted to 23.5 µM (≈ 8.6 µg/mL).

Still in this assay, the particulars now being: Candida albicans, 3153, read-out: IC50 (uM) (50% inhibition of fungal growth), 24 hrs at 30° C., YPD, XLfit.
As to `Cc1cccc(OCCCCCCCCNc2ccnc3ccccc23)c1` [BE, N-[8-(m-Tolyloxy)octyl]quinolin-4-amine], the IC50 was 12.2 µM.

Take `Cc1ccccc1OCCCCCCCCNc1ccnc2ccccc12` [BG, N-[8-(o-Tolyloxy)octyl]quinolin-4-amine]: the IC50 is 11.5 µM.

Turning to `Fc1cccc(OCCCCCCCCNc2ccnc3ccccc23)c1` [BI, N-[8-(3-Fluorophenoxy)octyl]quinolin-4-amine], the IC50 was 17.5 µM.

Consider `Fc1ccc(OCCCCCCCCNc2ccnc3ccccc23)cc1` [BJ, N-[8-(4-Fluorophenoxy)octyl]quinolin-4-amine], for which the IC50 is 13.3 µM.
